These results are taken from US8030352B2, “Method of producing retinyl esters” (Unilever Home & Personal Care USA, division of Conopco, Inc., priority 2002, dated 2011).

A short description of the series: Retinyl ester stability in moisturising cream formulations (HPLC). In kind it is physicochemical. Conditions: 0.03 and 0.15% retinyl ester in cream; stored at 22, 30, 45 and 50° C.; sampled over 35 days; FIGS. 1 and 2. As to the method:
Retinyl Linoleate from National Starch Corp. and the retinyl ester product from example 1 were blended into moisturising cream formulations shown below in Formulations 1 and 2 at a level of 0.03 and 0.15% of the retinyl ester. The creams were stored at 22° C., 30° C., 45° C. and 50° C. and samples taken at time 0, and twice more over 35 days as shown in FIGS. 1 and 2.
The retinyl esters were extracted from the base cream 60/40 acetone/acetonitrile, stirred for 10 minutes, filtered and then injected These were then analysed by HPLC according to the conditions below.
FIGS. 1 and 2 show the stability results for the samples.

In the case of `CCCCCCCCCCCCCCCC(=O)OC/C=C(C)/C=C/C=C(C)/C=C/C1=C(C)CCCC1(C)C` [retinyl palmitate], the “stability in moisturising cream” value is given as “only as stable as retinyl linoleate (National Starch)”.
